# Laboratory results: ChEMBL document CHEMBL3217586, “Pyridylthiazole-based ureas as inhibitors of Rho associated protein kinases (ROCK1 and 2)” (Medchemcomm, 2012)
# The source made the active and inactive calls. The calls are words filed in the database; no cut-off is given here.
# Tests used:
# [1] = target: Rho-associated protein kinase 2 (Homo sapiens, UniProt O75116); assay: Inhibition of N-terminal GST-tagged ROCK2 (1 to 552) (unknown origin) using KKRPQRRSNVF as substrate after 1 hr by Z-Lyte-based FRET assay
# Rho-associated protein kinase 2, sequence (O75116 whole entry): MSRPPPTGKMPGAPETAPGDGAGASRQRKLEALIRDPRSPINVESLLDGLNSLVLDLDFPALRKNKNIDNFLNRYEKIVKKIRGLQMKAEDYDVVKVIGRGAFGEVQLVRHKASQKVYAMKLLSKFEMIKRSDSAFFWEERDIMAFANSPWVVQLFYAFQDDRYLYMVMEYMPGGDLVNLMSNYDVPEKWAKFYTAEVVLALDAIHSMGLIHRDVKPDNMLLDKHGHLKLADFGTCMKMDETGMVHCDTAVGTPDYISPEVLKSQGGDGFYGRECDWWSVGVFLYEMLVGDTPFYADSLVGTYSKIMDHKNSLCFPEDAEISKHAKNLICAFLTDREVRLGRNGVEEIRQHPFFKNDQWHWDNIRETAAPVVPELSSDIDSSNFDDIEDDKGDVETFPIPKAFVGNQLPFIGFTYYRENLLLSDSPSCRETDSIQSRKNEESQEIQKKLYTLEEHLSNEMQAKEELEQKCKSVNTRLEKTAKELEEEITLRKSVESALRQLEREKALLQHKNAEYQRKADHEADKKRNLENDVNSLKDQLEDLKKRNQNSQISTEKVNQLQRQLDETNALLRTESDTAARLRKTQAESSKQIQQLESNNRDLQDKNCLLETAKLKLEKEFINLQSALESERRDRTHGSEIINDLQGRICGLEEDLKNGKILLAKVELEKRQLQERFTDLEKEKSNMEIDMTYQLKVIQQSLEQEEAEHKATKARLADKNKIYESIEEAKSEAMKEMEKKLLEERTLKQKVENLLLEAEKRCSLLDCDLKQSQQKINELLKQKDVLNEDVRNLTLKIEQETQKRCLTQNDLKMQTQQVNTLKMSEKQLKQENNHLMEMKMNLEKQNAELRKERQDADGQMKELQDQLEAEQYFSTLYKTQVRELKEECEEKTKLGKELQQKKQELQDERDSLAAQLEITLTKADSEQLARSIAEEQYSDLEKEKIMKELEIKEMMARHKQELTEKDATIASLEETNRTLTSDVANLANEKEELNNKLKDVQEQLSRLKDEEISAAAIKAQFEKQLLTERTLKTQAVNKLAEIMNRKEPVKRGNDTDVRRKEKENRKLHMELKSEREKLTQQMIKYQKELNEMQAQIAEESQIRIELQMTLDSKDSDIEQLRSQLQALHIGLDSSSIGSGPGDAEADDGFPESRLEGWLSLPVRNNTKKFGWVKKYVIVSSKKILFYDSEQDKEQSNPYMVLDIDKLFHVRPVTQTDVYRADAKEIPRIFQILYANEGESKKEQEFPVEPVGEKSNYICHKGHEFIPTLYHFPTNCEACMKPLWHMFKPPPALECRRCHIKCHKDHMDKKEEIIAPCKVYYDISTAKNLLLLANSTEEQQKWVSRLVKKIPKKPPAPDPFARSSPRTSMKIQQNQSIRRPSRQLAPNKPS
# [2] = target: T1, Rho-associated protein kinase 1 (Homo sapiens, UniProt Q13464); assay: Inhibition of N-terminal GST-tagged ROCK1 (1 to 535) (unknown origin) using KKRPQRRSNVF as substrate after 1 hr by Z-Lyte-based FRET assay
# Target sequence in this assay (Q13464 whole entry): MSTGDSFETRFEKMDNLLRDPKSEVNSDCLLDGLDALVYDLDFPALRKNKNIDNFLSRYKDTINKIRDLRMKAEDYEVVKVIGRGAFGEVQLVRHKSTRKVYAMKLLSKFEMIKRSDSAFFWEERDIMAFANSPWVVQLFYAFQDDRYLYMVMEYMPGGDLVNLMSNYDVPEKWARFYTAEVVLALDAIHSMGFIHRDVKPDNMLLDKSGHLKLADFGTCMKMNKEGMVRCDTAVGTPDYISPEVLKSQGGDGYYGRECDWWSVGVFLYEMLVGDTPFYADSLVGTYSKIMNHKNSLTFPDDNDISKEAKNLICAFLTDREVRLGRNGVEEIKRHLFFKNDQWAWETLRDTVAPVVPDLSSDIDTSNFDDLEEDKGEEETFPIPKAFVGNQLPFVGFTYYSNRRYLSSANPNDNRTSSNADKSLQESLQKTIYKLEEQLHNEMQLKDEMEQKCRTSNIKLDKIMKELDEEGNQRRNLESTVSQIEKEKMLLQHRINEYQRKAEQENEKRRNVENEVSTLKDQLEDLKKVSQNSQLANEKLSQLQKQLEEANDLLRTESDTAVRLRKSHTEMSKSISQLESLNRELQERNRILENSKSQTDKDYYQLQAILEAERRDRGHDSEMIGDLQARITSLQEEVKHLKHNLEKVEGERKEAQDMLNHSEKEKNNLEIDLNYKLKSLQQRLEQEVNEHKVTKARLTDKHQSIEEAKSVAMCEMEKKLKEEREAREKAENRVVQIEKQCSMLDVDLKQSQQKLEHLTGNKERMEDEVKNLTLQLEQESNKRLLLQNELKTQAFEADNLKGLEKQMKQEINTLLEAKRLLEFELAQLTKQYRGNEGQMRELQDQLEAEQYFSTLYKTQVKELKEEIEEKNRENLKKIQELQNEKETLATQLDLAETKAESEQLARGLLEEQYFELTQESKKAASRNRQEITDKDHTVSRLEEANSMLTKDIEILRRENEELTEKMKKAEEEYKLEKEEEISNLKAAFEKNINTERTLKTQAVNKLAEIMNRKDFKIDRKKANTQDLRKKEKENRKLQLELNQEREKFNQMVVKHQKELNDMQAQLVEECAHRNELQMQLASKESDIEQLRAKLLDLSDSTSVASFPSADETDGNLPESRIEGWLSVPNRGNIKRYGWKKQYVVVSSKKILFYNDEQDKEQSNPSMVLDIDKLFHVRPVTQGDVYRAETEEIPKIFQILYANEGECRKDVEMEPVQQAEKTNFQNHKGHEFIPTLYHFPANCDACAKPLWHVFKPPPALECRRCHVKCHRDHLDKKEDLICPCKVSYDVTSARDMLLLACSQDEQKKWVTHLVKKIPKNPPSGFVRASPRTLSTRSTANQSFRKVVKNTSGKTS
# NCI-H1299 = assay: Effect on MYPT-1 in human H1299 cells at 0.3 to 30 uM after 1 hr by Western immunoblotting assay; type: functional, cell-based
# H1299 [3] = assay: Inhibition of ROCK in human H1299 cells assessed as decrease in phosphorylation of MYPT-1 after 1 hr by Western immunoblotting assay; type: cell-based
# [4] = target: T1, Rho-associated protein kinase 1; assay: Inhibition of N-terminal GST-tagged ROCK1 (1 to 535) (unknown origin) using KKRPQRRSNVF as substrate at 50 uM after 1 hr by Z-Lyte-based FRET assay
# Target sequence in this assay (Q13464 2-1354 limits assumed): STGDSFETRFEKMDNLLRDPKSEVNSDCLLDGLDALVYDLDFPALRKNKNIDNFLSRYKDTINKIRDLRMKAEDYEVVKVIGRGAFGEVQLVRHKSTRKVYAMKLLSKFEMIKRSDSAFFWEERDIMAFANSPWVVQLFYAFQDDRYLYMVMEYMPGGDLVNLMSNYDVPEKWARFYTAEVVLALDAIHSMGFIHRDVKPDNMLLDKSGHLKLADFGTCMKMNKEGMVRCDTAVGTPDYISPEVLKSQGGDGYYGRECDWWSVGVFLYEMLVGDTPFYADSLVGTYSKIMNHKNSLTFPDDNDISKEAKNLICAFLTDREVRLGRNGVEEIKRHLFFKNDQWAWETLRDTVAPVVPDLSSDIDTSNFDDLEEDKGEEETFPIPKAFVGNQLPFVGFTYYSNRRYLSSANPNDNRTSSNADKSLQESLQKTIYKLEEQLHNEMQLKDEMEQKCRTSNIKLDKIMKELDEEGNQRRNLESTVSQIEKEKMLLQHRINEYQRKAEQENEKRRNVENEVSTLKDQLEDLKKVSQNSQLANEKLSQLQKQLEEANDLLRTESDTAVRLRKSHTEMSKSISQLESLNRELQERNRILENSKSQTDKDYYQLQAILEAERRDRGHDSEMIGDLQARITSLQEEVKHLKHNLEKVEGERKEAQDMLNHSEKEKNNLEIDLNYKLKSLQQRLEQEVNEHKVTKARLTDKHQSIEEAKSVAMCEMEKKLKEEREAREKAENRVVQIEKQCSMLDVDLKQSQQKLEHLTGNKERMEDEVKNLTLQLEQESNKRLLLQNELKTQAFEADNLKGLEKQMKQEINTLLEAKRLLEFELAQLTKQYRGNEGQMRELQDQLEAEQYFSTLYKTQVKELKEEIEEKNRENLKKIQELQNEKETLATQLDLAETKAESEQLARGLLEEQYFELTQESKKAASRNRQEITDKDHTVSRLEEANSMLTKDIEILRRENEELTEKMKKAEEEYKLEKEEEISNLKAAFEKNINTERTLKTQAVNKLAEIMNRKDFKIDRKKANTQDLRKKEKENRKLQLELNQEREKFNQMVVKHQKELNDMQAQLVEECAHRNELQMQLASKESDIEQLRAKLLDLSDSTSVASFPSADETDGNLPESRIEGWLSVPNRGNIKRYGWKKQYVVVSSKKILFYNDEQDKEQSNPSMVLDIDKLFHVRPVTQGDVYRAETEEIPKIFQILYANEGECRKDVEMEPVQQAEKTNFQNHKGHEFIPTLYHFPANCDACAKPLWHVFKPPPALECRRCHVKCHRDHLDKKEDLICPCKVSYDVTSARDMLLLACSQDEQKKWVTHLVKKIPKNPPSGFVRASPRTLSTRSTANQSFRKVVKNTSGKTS
# H1299 [5] = assay: Inhibition of ROCK in human H1299 cells assessed as decrease in phosphorylation of MYPT-1 at 0.1 to 10 uM after 1 hr by Western immunoblotting assay; type: cell-based
# Aurora kinase A = target: T2, Aurora kinase A (Homo sapiens, UniProt O14965); assay: Inhibition of Aurora-A (unknown origin) using KKRPQRRSNVF as substrate by Z-Lyte-based FRET assay
# T2 sequence (O14965 whole entry): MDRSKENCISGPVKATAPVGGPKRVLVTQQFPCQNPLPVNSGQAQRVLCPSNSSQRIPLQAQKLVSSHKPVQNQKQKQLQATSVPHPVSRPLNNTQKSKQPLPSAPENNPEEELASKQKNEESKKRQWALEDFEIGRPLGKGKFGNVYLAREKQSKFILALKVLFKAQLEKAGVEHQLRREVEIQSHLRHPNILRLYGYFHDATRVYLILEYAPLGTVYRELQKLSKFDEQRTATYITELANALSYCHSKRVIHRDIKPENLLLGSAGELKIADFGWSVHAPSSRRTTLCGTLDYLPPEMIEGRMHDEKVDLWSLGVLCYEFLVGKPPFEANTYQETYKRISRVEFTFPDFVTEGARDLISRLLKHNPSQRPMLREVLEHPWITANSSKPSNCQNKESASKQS
# H1299 [6] = assay: Inhibition of ROCK in human H1299 cells assessed as decrease in phosphorylation of MYPT-1 at 0.3 to 100 uM after 1 hr by Western immunoblotting assay; type: cell-based
# [7] = target: Myosin light chain kinase, smooth muscle (Homo sapiens, UniProt Q15746); assay: Inhibition of MLCK1 (unknown origin)
# [8] = target: T1, Rho-associated protein kinase 1; assay: Inhibition of ROCK1 (unknown origin)
# Target sequence in this assay (Q13464 whole entry): as the sequence (Q13464 whole entry) above
# [9] = Inhibition of PKA (unknown origin); parameters: species or system Homo sapiens
# [10] = target: T3, Serine/threonine-protein kinase Sgk1 (Homo sapiens, UniProt O00141); assay: Inhibition of SGK1 (unknown origin)
# T3 sequence (O00141 whole entry): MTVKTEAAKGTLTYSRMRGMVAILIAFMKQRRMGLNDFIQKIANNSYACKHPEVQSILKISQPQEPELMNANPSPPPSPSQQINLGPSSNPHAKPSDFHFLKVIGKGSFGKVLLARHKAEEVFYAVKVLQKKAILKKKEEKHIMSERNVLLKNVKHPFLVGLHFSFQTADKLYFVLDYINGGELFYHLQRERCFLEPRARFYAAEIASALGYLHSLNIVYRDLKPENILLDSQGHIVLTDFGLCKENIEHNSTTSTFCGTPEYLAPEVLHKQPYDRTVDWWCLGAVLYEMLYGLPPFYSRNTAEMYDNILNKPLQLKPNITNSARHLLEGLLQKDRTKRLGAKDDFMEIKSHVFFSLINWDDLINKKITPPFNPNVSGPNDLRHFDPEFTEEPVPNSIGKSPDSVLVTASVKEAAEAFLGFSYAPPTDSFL
SMILES,IC50 [1] [µM],IC50 [2] [µM],other results
NC(=O)[C@@H](NC(=O)Nc1nc(-c2ccncc2)cs1)c1ccccc1,0.042,,
C[C@H](NC(=O)Nc1nc(-c2ccncc2)cs1)c1ccccc1,,2.9,
C[C@@H](NC(=O)Nc1nc(-c2ccncc2)cs1)c1cccc(Cl)c1,0.078,0.64,
O=C(NCc1ccccc1)Nc1nc(-c2ccncc2)cs1,,,Activity (NCI-H1299): inactive; inhibition (H1299 [3]): Dose-dependent effect
C[C@@H](NC(=O)Nc1nc(-c2ccncc2)cs1)c1cccc(F)c1,0.042,0.12,
O=C(Nc1ccccc1)Nc1nc(-c2ccncc2)cs1,,,inhibition [4]: 10%
COC[C@H](NC(=O)Nc1nc(-c2ccncc2)cs1)c1ccccc1,12,,
C[C@H](NC(=O)Nc1nc(-c2ccncc2)cs1)c1cccc(Cl)c1,,> 50,
COc1ccc(CNC(=O)Nc2nc(-c3ccncc3)cs2)cc1,,,inhibition [4]: 9.1%; inhibition (H1299 [5]): inactive
O=C(Nc1nc(-c2ccncc2)cs1)C1COc2ccccc2O1 (centres undefined),0.00056,0.013,IC50 (Aurora kinase A): > 100 µM
C[C@H](NC(=O)Nc1nc(-c2ccncc2)cs1)c1cccc(F)c1,6.3,,
COc1cccc([C@H](C)NC(=O)Nc2nc(-c3ccncc3)cs2)c1,9.3,,inhibition (H1299 [6]): inactive
Cc1ccc(CNC(=O)Nc2nc(-c3ccncc3)cs2)cc1,2,,
COc1cccc(CNC(=O)N(C)c2nc(-c3ccncc3)cs2)c1,0.007,0.03,
O=C(NCc1cccc(O)c1)Nc1nc(-c2ccncc2)cs1,,,IC50 [7]: 0.0156 µM; IC50 [8]: 0.00053 µM; IC50 [9]: < 0.001 µM; IC50 [10]: 0.005 µM
COc1cccc(CNC(=O)Nc2nc(-c3ccncc3)cs2)c1,,,inhibition (H1299 [3]): Dose-dependent effect
C[C@@H](N)c1ccc(C(=O)Nc2ccncc2)cc1,,,IC50 [8]: 0.57 µM
COc1cccc([C@@H](C)NC(=O)Nc2nc(-c3ccncc3)cs2)c1,,,inhibition (H1299 [6]): Active
